{"source": "paper PMC7970697", "about": "“Inhibition and Induction by Poziotinib of Different Rat Cytochrome P450 Enzymes In Vivo and in an In Vitro Cocktail Method” (Frontiers in Pharmacology, 2021)", "key": {"cyp2d1": {"target": "T1, cyp2d1 (Rattus norvegicus, UniProt P10633)", "T1 sequence (P10633 1-504)": "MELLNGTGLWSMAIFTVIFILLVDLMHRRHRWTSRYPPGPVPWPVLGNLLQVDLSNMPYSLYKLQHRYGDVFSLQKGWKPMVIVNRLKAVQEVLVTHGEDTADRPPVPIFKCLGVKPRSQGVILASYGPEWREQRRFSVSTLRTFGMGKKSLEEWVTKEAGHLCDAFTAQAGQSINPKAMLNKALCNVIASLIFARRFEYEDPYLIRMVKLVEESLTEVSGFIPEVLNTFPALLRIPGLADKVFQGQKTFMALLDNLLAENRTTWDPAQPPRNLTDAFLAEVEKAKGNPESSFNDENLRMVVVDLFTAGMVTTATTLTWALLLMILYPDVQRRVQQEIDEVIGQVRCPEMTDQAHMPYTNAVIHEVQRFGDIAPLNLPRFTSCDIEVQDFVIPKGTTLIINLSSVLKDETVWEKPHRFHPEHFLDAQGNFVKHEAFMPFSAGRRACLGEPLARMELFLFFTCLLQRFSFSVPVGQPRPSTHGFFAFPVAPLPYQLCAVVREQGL", "test": "Cocktail method IC50 in rat liver microsomes, dextromethorphan probe", "assay_type": "in vitro ADME", "description": "(§1) The cocktail method was employed to analyze the effects of poziotinib on cyp1a2, cyp2b1, cyp2c11, cyp2d1, cyp2e1, and cyp3a1/2. […] Then half-maximal inhibitory concentration (IC50) of poziotinib was determined with all of the CYPs. […]. To this cocktail, 1 mg/ml of RLMs, 100 mM potassium phosphate buffer (pH 7.4), poziotinib (1, 2.5, 5, 10, 25, 50, or 100 μM) were added to obtain a final volume of 200 μL. After pre-incubation of this mixture for 5 min in a shaking water bath at 37°C, 1 mM NADPH was added to start the reaction. The reactions were allowed to proceed for 30 min, after which 200 μL of acetonitrile and 20 μL of IS were added to terminate the reactions. The mixtures were vortexed for 30 s and centrifuged again at 13,000 rpm for 5 min."}, "cyp2e1 [1]": {"target": "T2, cyp2e1 (Rattus norvegicus, UniProt P05182)", "T2 construct": "To this cocktail, 1 mg/ml of RLMs; from tissue; host or cells: rat liver microsomes, prepared in-house", "T2 sequence (P05182 whole entry)": "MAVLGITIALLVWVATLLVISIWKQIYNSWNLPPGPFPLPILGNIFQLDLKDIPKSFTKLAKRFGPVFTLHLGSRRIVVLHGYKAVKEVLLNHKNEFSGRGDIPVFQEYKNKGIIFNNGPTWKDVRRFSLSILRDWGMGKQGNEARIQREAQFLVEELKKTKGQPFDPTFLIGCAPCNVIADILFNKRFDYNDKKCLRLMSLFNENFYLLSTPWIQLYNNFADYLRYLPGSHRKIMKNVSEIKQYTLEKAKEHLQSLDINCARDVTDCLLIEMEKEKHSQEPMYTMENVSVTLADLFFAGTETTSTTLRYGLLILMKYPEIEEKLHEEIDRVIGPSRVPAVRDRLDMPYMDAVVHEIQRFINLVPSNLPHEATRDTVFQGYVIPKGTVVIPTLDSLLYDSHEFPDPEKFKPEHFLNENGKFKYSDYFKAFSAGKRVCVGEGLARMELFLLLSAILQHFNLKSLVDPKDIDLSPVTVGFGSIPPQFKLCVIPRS", "test": "Cocktail method IC50 in rat liver microsomes, chlorzoxazone probe", "assay_type": "in vitro ADME", "description": "as §1"}, "cyp3a1/2": {"test_system": "cyp3a1/2", "test": "Cocktail method IC50 in rat liver microsomes, midazolam probe", "assay_type": "in vitro ADME", "description": "as §1"}, "cyp2e1 [2]": {"test_system": "cyp2e1", "test": "Effect of poziotinib on cyp2e1 activity in rats (chlorzoxazone pharmacokinetics)", "assay_type": "in vivo, Sprague-Dawley rats", "conditions": "poziotinib 5 mg/kg oral 7 days, chlorzoxazone probe", "quoted_text": "Twelve male Sprague-Dawley rats (230 ± 20 g) were randomly divided into treated and control groups, with 6 in each group. […] The supernatant was mixed with 200 μL of acetonitrile and 20 μL of 0.5 μg/ml diazepam (IS), vortexed for 30 s, centrifuged at 13,000 rpm for 5 min, and the supernatant was injected into the UPLC-MS/MS system for analysis.\nPharmacokinetic parameters were calculated using DAS software (Version 3.2.8). SPSS software (version 16.0; SPSS Inc., Chicago, IL, United States) was used to analyze the significance of differences between the main pharmacokinetic parameters. p < 0.05 was considered statistically significant. GraphPad (version 8.0; GraphPad Software Inc., San Diego, CA, United States) was used to calculate IC50 and plot the plasma concentration-time curves and inhibition plots (type of inhibition, time- and concentration-dependence)."}, "cyp2b1": {"target": "T3, cyp2b1 (Rattus norvegicus, UniProt P00176)", "T3 sequence (P00176 1-491)": "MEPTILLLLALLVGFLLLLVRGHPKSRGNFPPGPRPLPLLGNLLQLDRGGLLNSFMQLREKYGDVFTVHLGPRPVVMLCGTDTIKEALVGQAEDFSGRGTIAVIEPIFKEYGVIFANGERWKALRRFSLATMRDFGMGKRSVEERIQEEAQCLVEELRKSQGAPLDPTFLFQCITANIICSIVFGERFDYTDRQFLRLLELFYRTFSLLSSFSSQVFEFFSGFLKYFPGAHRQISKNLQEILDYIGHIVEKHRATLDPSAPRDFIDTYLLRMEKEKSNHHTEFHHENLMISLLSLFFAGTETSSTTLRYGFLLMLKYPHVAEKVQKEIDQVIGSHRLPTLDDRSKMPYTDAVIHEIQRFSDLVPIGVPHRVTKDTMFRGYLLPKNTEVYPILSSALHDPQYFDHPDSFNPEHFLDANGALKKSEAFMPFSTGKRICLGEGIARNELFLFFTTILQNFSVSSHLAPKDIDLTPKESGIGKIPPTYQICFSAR", "test": "Mechanism of inhibition (Lineweaver-Burk plots), bupropion in RLMs", "assay_type": "in vitro ADME", "parameters": "from tissue; host or cells: rat liver microsomes, prepared in-house", "description": "To elucidate the mechanism of inhibition of cyp2b1 and 2c11 by poziotinib, we examined the interaction of different concentrations of poziotinib with bupropion and tolbutamide, respectively. Poziotinib was preincubated with 1 mg/ml of RLMs and probe substrate in a 37°C shaking water bath for 5 min, following which NADPH was added and incubated for 30 min. The concentrations of poziotinib were 0, 2, 4, 8 and 16 μM for 2b1, 0, 5, 10 20 and 40 μM for 2c11. The concentrations of bupropion were 5, 10, 20, and 40 μM, and the concentrations of tolbutamide were 25, 50, 100, and 200 μM. Poziotinib was incubated with different concentrations of the probe substrates in triplicate. The reactions were carried out, stopped, and processed as described in 2.3. Lineweaver-Burk plots were graphed."}, "cyp2c11": {"target": "T4, cyp2c11 (Rattus norvegicus, UniProt P08683)", "T4 sequence (P08683 1-500)": "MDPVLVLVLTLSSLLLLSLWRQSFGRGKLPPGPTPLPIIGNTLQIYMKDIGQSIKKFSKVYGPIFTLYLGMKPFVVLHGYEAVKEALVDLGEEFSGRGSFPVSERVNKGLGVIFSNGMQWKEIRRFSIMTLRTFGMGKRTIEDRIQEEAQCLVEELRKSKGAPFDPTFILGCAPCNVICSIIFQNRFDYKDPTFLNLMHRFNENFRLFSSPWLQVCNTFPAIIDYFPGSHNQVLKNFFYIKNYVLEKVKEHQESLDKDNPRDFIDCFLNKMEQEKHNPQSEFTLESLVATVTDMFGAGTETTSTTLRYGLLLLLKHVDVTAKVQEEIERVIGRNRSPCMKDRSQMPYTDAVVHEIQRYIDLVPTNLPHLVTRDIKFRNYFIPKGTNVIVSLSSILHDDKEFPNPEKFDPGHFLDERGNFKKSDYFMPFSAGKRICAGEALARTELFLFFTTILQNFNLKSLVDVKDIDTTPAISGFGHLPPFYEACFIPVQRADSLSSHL", "test": "Time- and concentration-dependent inhibition in RLMs, tolbutamide", "assay_type": "in vitro ADME", "parameters": "from tissue; host or cells: rat liver microsomes, prepared in-house", "description": "A mixture containing 1 mg/ml of RLMs, different concentrations of poziotinib (0, 2, 4, 8 and16 μM for 2b1; 0, 5, 10 20 and 40 μM for 2c11), and NADPH was pre-incubated at 37°C for 0, 5, 10, and 20 min; Methanol instead of poziotinib was performed as control. Then 20 μM bupropion or 100 μM tolbutamide was added and incubated at 37°C for 30 min. The reactions were carried out and analyzed in triplicate as described in 2.3."}}, "note": "Read-outs that look alike come from different tables or passages of the source.", "data": [{"smiles": "C=CC(=O)N1CCC(Oc2cc3c(Nc4ccc(Cl)c(Cl)c4F)ncnc3cc2OC)CC1", "note": "[Poziotinib]", "values": [{"measurement": "inhibitory effect on cyp2d1 (in words)", "setting": "cyp2d1", "value": "weak inhibition"}, {"measurement": "inhibitory effect on cyp2d1 (in words)", "setting": "cyp2d1; listed as poziotinib", "value": "not obvious"}, {"measurement": "IC50 at 30 min", "setting": "cyp2d1; pH 7.4, probe dextromethorphan (10 μM), 10 μM dextromethorphan, cocktail, 30 min", "value": 62, "unit": "µM"}, {"measurement": "inhibitory effect on cyp2e1 (in words)", "setting": "cyp2e1 [1]", "value": "did not show any obvious inhibitory effect"}, {"measurement": "IC50", "setting": "cyp2e1 [1]; 40 μM chlorzoxazone, cocktail, 30 min", "value": 156, "unit": "µM"}, {"measurement": "inhibitory effect on cyp2e1 (in words)", "setting": "cyp2e1 [1]; listed as poziotinib", "value": "not obvious"}, {"measurement": "inhibitory effect on cyp3a1/2 (in words)", "setting": "cyp3a1/2", "value": "did not show any obvious inhibitory effect"}, {"measurement": "inhibitory effect on cyp3a1/2 (in words)", "setting": "cyp3a1/2; listed as poziotinib", "value": "not obvious"}, {"measurement": "IC50 at 30 min", "setting": "cyp3a1/2; pH 7.4, probe midazolam (5 μM), 5 μM midazolam, cocktail, 30 min", "value": 303, "unit": "µM"}, {"measurement": "effect on cyp2e1 activity in rats", "setting": "cyp2e1 [2]", "value": "induced cyp2e1 activity"}, {"measurement": "type of inhibition of cyp2b1", "setting": "cyp2b1; Lineweaver-Burk plots", "value": "competitive"}, {"measurement": "Ki", "setting": "cyp2b1; rat liver microsomes, bupropion 5-40 μM, poziotinib 0-16 μM, secondary plot", "value": 16.2, "unit": "µM"}, {"measurement": "time- and concentration-dependent inhibition of cyp2c11", "setting": "cyp2c11; pre-incubation 0, 5, 10, 20 min, poziotinib 5-40 μM", "value": "no time- or concentration-dependent inhibitory effects"}, {"measurement": "reversibility of inhibition of cyp2c11", "setting": "cyp2c11; pre-incubation 0, 5, 10, 20 min with NADPH", "value": "reversible"}]}]}
